{"source": "patent US6291676A", "about": "“Water-soluble derivatives of camptothecin/homocamptothecin” (priority 2000, dated 2001)", "key": {"[1]": {"assay": "Fluorescence anisotropy titration: association with negatively-charged DMPG vesicles", "type": "physicochemical", "method": "Vesicle Preparation. Small unilamellar vesicle (SUV) suspensions were prepared the day of an experiment by the method of Burke et al. (T. G. Burke, A. K. Mishra, M. C. Wani, and M. E. Wall, Lipid Bilayer Partitioning and Stability of Camptothecin Drugs, Biochem., 32(20), 5352 (1993)). Briefly, stock lipid suspensions containing 200 mg/mL lipid in phosphate buffered saline (PBS, pH 7.4) were prepared by Vortex mixing for 5-10 min above the TM of the lipid. The lipid dispersions were then sonicated using a bath-type sonicator (Laboratory Supplies Co., Hicksville, N.Y.) for 3-4 h until they became optically clear. […] Each type of vesicle suspension was annealed for 30 min at 37° C. and then used in an experiment.\nFluorescence Instrumentation. Steady-state fluorescence measurements were obtained on a SLM Model 9850 spectrofluorometer with a thermostated cuvette compartment. This instrument was interfaced with an IBM PS/2 model 55 SX computer. Excitation and emission spectra were recorded with an excitation resolution of 8 nm and an emission resolution of 4 nm. In all cases spectra were corrected for background fluorescence and scatter from unlabeled lipids or from solvents by subtraction of the spectrum of a blank. Steady-state fluorescence intensity measurements were made in the absence of polarizers. Steady-state anisotropy (a) measurements were determined with the instrument in the \"T-format\" for simultaneous measurement of two polarized intensities. […] The anisotropy was calculated from a =(IVV -GIVH)/(IVV +2GIVH), where G=IHV /IHH and the subscripts refer to vertical and horizontal orientations of the excitation and emission polarizers, respectively.\nAnisotropy measurements for camptothecins were conducted using exciting light in the range of 370 nm to 400 nm and long pass filters on each emission channel in order to isolate the drug's fluorescence signal from background scatter and/or residual fluorescence. […] The combination of exciting light and emission filters allowed us to adequately separate fluorescence from background signal. […]"}, "[2]": {"assay": "HPLC lactone stability in presence of DMPG SUV", "type": "physicochemical", "settings": "for less lactone compared to the prior art monoamine (7AEC): DMPG", "method": "To further study the differential interactions of CT-17 versus 7AEC with liposomal particles, high performance liquid chromatographic (HPLC) methods were employed to study drug stabilities in the absence and presence of membranes. In these experiments, small unilamellar vesicles (SUV) composed of dimyristoyl phosphatidylcholine (DMPC) were prepared by weighing out dry lipid powder (Avanti Polar Lipids) in a glass tube with screw cap top. The lipid was suspended in phosphate buffered saline, pH 7.4, at the concentration of 20 mg/ml and vortexed vigorously for 1 minute. The suspension was sonicated in a bath-type sonicator (Laboratory Supplies Co., Hicksville, N.Y.) for 2-4 hours until optically clear solution is obtained. […] A decrease in pH from 7.4 to 7.2 was observed. The pH of the SUV preparation was adjusted to 7.4 by the addition of 0.1 M potassium hydroxide. The sample was resonicated after pH adjustment until optically clear. Small unilamellar vesicles composed of dimyristoyl phosphatidylglycerol (DMPG) were also prepared by weighing out dry powder of the lipid (Avanti Polar Lipids) in a glass tube with screw-cap top and prepared as in the case of DMPC. The pH of the preparation decreased from 7.4 to 6.9 and was adjusted to 7.4 by the addition of 0.1 M KOH. The preparation was resonicated for 30 minutes until optically clear.\nStock solutions of 7-(1-Aminoethyl)camptothecin, a monoamine compound known in the prior art, and CT-17 as prepared in Example 18 were prepared by weighing out dry powder and dissolving in dimethylsulfoxide (DMSO) at a concentration of 2 mM. The SUV preparations from above were incubated at 37° C. in a water bath for 30 minutes. The two camptothecin drugs were added to the SUV preparations such that the final drug concentrations were 1 μM. The samples were incubated at 37° C. and aliquots were withdrawn at 1 hour and 3 hours and added to cold methanol (-20° C.) and immediately analyzed by reversed-phase HPLC using the conditions as follows. Analysis was performed using either Waters Alliance 2690 LC system equipped with temperature controlled autosampler or Waters LC system equipped with temperature controlled 717 plus Autosampler and 501 pumps. The detection was using either Waters 470 or 474 fluorescence detectors. Solvent A was 2% triethylammonium acetate, pH 5.5 and Solvent B was acetonitrile. The column used was Waters Symmetry C18, 5 μm (3.9×150 mm). The autosampler temperature was maintained at 4-5° C. The conditions used for analysis of 7-(1-Aminoethyl)camptothecin: Isocratic elution using 15% of solvent A and 85% of solvent B; detection using λcx =370 and λcm =440. […] The HPLC data was collected and analyzed using Waters Millenium chromatography manager."}}}
{"smiles": "CC[C@@]1(O)C(=O)OCc2c1cc1n(c2=O)Cc2c-1nc1ccccc1c2CNN1CCN(C)CC1", "note": "[CT-17, 7-[N-(4-methyl-1-piperazino)aminomethyl]-(20S)-camptothecin]", "values": [{"measurement": "Overall association constant KDMPG", "setting": "[1]; PBS buffer, pH 7.4, physiological temperature, DMPG", "value": 800, "unit": "M⁻¹"}, {"measurement": "reduction in membrane binding relative to 7AEC (negatively-charged membranes)", "setting": "[1]; negatively-charged DMPG membranes", "value": "three-fold"}, {"measurement": "remaining at 1 h, 1 µM", "setting": "[2]; DMPG SUV, PBS pH 7.4, 37° C, 1 hr, 1 μM drug, read-out: Percentage of Lactone, DMPG, 1 Hr", "value": "87 ± 2", "unit": "%"}, {"measurement": "remaining at 3 h, 1 µM", "setting": "[2]; DMPG SUV, PBS pH 7.4, 37° C, 3 hr, 1 μM drug, read-out: Percentage of Lactone, DMPG, 3 Hr", "value": "78 ± 3", "unit": "%"}, {"measurement": "less lactone compared to the prior art monoamine (7AEC)", "setting": "[2]; 1 hr", "value": 6, "unit": "%"}, {"measurement": "less lactone compared to the prior art monoamine (7AEC)", "setting": "[2]; 3 hr", "value": 8, "unit": "%"}]}
